Assay results reported in US20240408167A1, “COMPOSITION FOR TREATING OCULAR DISEASES CONTAINING PEPTIDE” (Encuragen Inc., priority 2023, published 2024).
Where “and” joins values, the source holds several entries; their conditions need not be identical. Equal entries are not always repeated.

Assays:
[1] = tested on: mouse experimental dry eye (EDE) model; assay: Tear film break-up time (TBUT), EDE mouse model; type: in vivo
Method: (§1) To confirm the pharmacological effect and appropriate dosage, a pilot study was first conducted with the mice. In addition, a rabbit DED (Dry Eye Disease) model with a large exposed facial area was evaluated in comparison with a mouse model. In the mouse experimental dry eye (EDE) model, scopolamine hydrobromide (Sigma-Aldrich. St. Louis, MO, USA) was subcutaneously injected three times a day (9 a.m., 1:30 p.m., 6 p.m.) in a room exposed to ventilation with an ambient humidity of less than 40% at 25±2° C. to induce DED.
(§2) The mice were randomly divided into five groups: (1) EDE (experimental dry eye) control mice without eye drops administration, (2) EDE mice treated with a vehicle (phosphate-buffered saline), (3) EDE mice treated with 0.001% (PEG)-BHD1028 (4) EDE mice treated with 0.01% (PEG)-BHD1028, and (5) EDE mice treated with 0.1% (PEG)-BHD1028. All the treatment groups received 2 μL of eye drops three times a day.
TBUT is the time elapsed between the last blink and the first appearance of fluorescein decomposition, and it is an indicator of tear film stability. TBUT was evaluated by administering 1 μL of 1% fluorescein sodium dye to the lower conjunctival sac of the mice and visualizing the tear film using cobalt blue light of a slit-lamp biomicroscope. The measurement was repeated three times to obtain an average value.
Tear film instability is an important pathological characteristic of DED and the most common indicator of tear quality. […] The improvement in the 0.01% (PEG)-BHD1028 group was greater than that in the 0.001% (PEG)-BHD1028 group on Day 10 (p<0.05), but there was no difference between 0.01% and 0.1%.

[2] = tested on: mouse experimental dry eye (EDE) model; assay: Corneal fluorescein staining (CFS) score, EDE mouse model; type: in vivo
Method: as §1, §2
(§3) The subjects were evaluated by corneal staining, and the abnormal findings of the eyelids, cornea, and conjunctiva were recorded. After dropping 1 μL of the 1% fluorescent dye solution and washing with saline solution, and the cornea was observed under a slit-lamp microscope and scored to evaluate the degree of epithelial damage (degree of fluorescent staining).
The clinical severity of the cornea was evaluated using a corneal fluorescein staining (CFS) method, which is widely used to detect foreign substances and corneal surface damage. A higher CFS score indicates more severe corneal epitheliopathy.

rabbit DED model = assay: Corneal fluorescein staining (CFS) score, rabbit DED model; type: in vivo; details: for dynamic slope of the CFS score change: from Day 1 to Day 10
Method: The rabbit DED model was induced by locally administrating 0.1% benzalkoniumchloride (BAC) drops (Sigma, St. Louis, MO, USA) twice a day (8 a.m. and 4 p.m.). Before the BAC treatment, the control group (baseline, naive) underwent standard dry eye clinical tests such as the Schirmer tear test (STT), TBUT, and corneal staining score (CSS) test. After the BAC treatment, the induction of dry eye syndrome was confirmed, and the test substance was administered for 10 days while maintaining the induction of dry eye syndrome. […] The test substance was locally applied bis in die (BID) to both eyes.
as §3

[3] = tested on: apoptotic cells in cornea and conjunctiva; assay: Apoptotic cells by TUNEL assay, EDE mouse model; type: in vivo; details: 0.001%, 0.01%, 0.1%
Method: (§4) The eyes and appendages from each group were excised, fixed in the modified Davidson's solution, and embedded in paraffin, and the tissue sections were TUNEL-stained. In each section, the degree of apoptosis in the cornea and conjunctiva was measured using ZEN (Zeiss, Oberkochen, Germany) and Image J v1.51j8 (NIH, Bethesda, MD, USA) software programs.
As DED progresses, the epithelium of the anterior segment of the eye undergoes pathological deformations, including functional damages and structural changes such as abnormal tear sebum secretion and pathogenic cell death. Apoptotic cells that were present in an equal area of the cornea and conjunctiva of one eye per group were quantified by the TUNEL assay.

[4] = tested on: apoptotic cells in cornea and conjunctiva; assay: Apoptotic cells by TUNEL, rabbit model; type: in vivo; details: for cell death rate in the conjunctiva: Day 10; for percentage of apoptotic cells per unit area, cornea: after 10 days
Method: as §4
The percentage of the apoptotic cells per unit area was evaluated after 10 days in the rabbit model. In the cornea, apoptotic cells were detected at a percentage of 35±6% in the normal control group and 74±2% in the vehicle group. In the 0.1%, 0.2%, and 0.4% (PEG)-BHD1028 treatment groups, the percentage was 40±12%, 39±3%, and 35±4%, respectively. […] In addition, the cell death rate in the conjunctiva was 7±5% in the normal control group and 56±4% in the vehicle group. The percentage in the 0.1%, 0.2% and 0.4% (PEG)-BHD1028 treatment groups was 35±4%, 26±3% and 19±4% on Day 10.

[5] = Viscosity of eye drops by rotational rheometer; type: physicochemical; details: shear rate 100 (1/s)
Description: Based on the above information, sodium hyaluronate was set as the viscosity reagent.

[6] = Osmotic pressure of trehalose-only formulations; type: physicochemical; details: trehalose-only formulation
Method: The osmotic pressure of the trehalose-only formulations according to the (PEG)-BHD1028 content (see Table 5) and the osmotic pressure of the trehalose-mannitol composite formulations according to the (PEG)-BHD1028 content (see Table 6) were measured, and reflecting the experimental results, the osmolarity including the 0.5% (PEG)-BHD1028 concentration was adjusted to about 300 mOsm/kg.

pI value of the API = type: physicochemical

NH2-Tyr-Tyr-Phe-Ala-Tyr-His-Pro-Asn-Ile-Pro-Gly-Leu-Tyr-Tyr-Phe-COOH (H-YYFAYHPNIPGLYYF-OH; also: PEGylated, site not given here (mPEG), acetate salt) [(PEG)-BHD1028]
TBUT ([1]; 0.001%, Day 5): 1.333 ± 0.081 s
TBUT ([1]; 0.001%, Day 10): 1.359 ± 0.140 s
TBUT ([1]; 0.01%, Day 5): 1.406 ± 0.082 s
TBUT ([1]; 0.01%, Day 10): 1.530 ± 0.137 s
TBUT ([1]; 0.1%, Day 5): 1.408 ± 0.095 s
TBUT ([1]; 0.1%, Day 10): 1.483 ± 0.113 s
CFS ([2]; 0.001%, Day 5): 9.875 ± 1.808 score
CFS ([2]; 0.001%, Day 10): 11.000 ± 1.927 score
CFS ([2]; 0.01%, Day 5): 8.625 ± 1.598 score
CFS ([2]; 0.01%, Day 10): 7.625 ± 1.598 score
CFS ([2]; 0.1%, Day 5): 8.125 ± 1.553 score
CFS ([2]; 0.1%, Day 10): 8.375 ± 1.302 score
CFS (rabbit DED model; rabbit DED, 0.1% BID, Day 5): 7.17 ± 1.21 score
CFS (rabbit DED model; rabbit DED, 0.1% BID, Day 10): 6.67 ± 0.56 score
CFS (rabbit DED model; rabbit DED, 0.2% BID, Day 5): 6.83 ± 0.64 score
CFS (rabbit DED model; rabbit DED, 0.2% BID, Day 10): 6.17 ± 0.55 score
CFS (rabbit DED model; rabbit DED, 0.4% BID, Day 5): 5.67 ± 0.38 score
CFS (rabbit DED model; rabbit DED, 0.4% BID, Day 10): 3.83 ± 0.64 score
CFS (rabbit DED model; rabbit, 0.1% group, Baseline (before BAC treatment)): 0.00 ± 0.00 score
CFS (rabbit DED model; rabbit, 0.1% group, Day 0 (EDE), before treatment): 6.67 ± 0.30 score
CFS (rabbit DED model; rabbit, 0.2% group, Baseline (before BAC treatment)): 0.00 ± 0.00 score
CFS (rabbit DED model; rabbit, 0.2% group, Day 0 (EDE), before treatment): 9.17 ± 0.37 score
dynamic slope of the CFS score change (rabbit DED model; rabbit, 0.2%): −0.42
CFS (rabbit DED model; rabbit, 0.4% group, Baseline (before BAC treatment)): 0.00 ± 0.00 score
CFS (rabbit DED model; rabbit, 0.4% group, Day 0 (EDE), before treatment): 8.00 ± 0.62 score
mean CFS score lower than that of the 0.05% cyclosporine treated animals (rabbit DED model; rabbit, 0.4%, Day 10, p=0.0558): approximately 46%
dynamic slope of the CFS score change (rabbit DED model; rabbit, 0.4%): −0.33
antiapoptotic effect (TUNEL) in the cornea and conjunctiva [3]: dose-dependent antiapoptotic effect
cell death rate in the conjunctiva ([4]; 0.1%): 35±4%
percentage of apoptotic cells per unit area, cornea ([4]; 0.1%): 40±12%
cell death rate in the conjunctiva ([4]; 0.2%): 26±3%
percentage of apoptotic cells per unit area, cornea ([4]; 0.2%): 39±3%
cell death rate in the conjunctiva ([4]; 0.4%): 19±4%
percentage of apoptotic cells per unit area, cornea ([4]; 0.4%): 35±4%
viscosity, Test result ([5]; concentration 0.5%): 0.009 Pa · S
viscosity, Test result ([5]; concentration 1.5%): 0.010 Pa · S
viscosity, Test result ([5]; concentration 4.5%): 0.014 Pa · S
osmotic pressure, Mean ([6]; 0.5%): 300.33 mOsm/kg
osmotic pressure, single measurements #1-#3 ([6]; 0.5%): 299 mOsm/kg and 301 mOsm/kg
osmotic pressure, Mean ([6]; 1.5%): 308.67 mOsm/kg
osmotic pressure, single measurements #1-#3 ([6]; 1.5%): 310 mOsm/kg and 309 mOsm/kg and 307 mOsm/kg
osmotic pressure, Mean ([6]; 4.5%): 335.00 mOsm/kg
osmotic pressure, single measurements #1-#3 ([6]; 4.5%): 335 mOsm/kg
pI value (pI value of the API): approximately 6.6
